Assay results: US12054744B2, “NK cells exhibiting an adaptive phenotype and methods for preparing and for using” (Regents of the University of Minnesota, priority 2015, dated 2024)

Legend:
Format in all cases: cell-based, human
TIGIT = test: Flow cytometry of TIGIT and other receptors on NK cells; conditions: cultured overnight; IL-15 10 ng/mL alone, or additional anti-CD16 1 μg/mL
Protocol: FIG. 11A. Purified NK cells from healthy blood donors were cultured before staining in the absence or presence of IL-15 (10 ng/mL) alone or with the additional stimulation of IL-12 (10 ng/mL) and IL-18 (100 ng/mL) for 18 hours or with stimulation with anti-CD16 (1 μg/mL) for 6 hours. One of four independent experiments is shown. NK cells were cultured with autologous MDSCs or freshly isolated monocytes at a 2:1 ratio in presence of IL-15 (10 ng/mL) for 5 days. Cells were stimulated with anti-CD16 six hours prior to analysis. Representative histograms for DNAM-1 (FIG. 11B) and TIGIT expression (FIG. 11C) and aggregate data for TIGIT expression (n=8) are shown as mean fluorescence intensity (MFI)±SEM. Two-Way ANOVA was used for statistical analysis. FIG. 11D. NK cells before and after co-culture with monocytes or MDSC were analyzed for co-expression of DNAM-1 and TIGIT. Representative data is shown of 3 independent experiments and 7 replicates. […]
Purified NK cells or MDS PBMC (FIG. 17) cultured with monocytes or MDSCs for different time points and with different stimuli were resuspended in staining buffer (PBS containing 0.5% human AB serum) and stained with fluorochrome-conjugated antibodies (Table IV). […] All cells were acquired by LSRII and analyzed by FlowJo. […]

[1] = test system: NK cells from CMV seropositive donors; test: Culture of CD3/CD19-depleted PBMCs with IL-15; FACS for CD45RA/CD45RO; conditions: autologous monocytes, 10 ng/mL IL-15, 7 days
Protocol: CD3/CD19-depleted peripheral blood mononuclear cells from typed healthy CMV seronegative and seropositive donors were cultured with 10 ng/mL IL-15. After 7 days, cells were harvested and analyzed by FACS. Shown are representative phenotypes from one CMV seropositive and one CMV seronegative donor both before and after culture (top). Cumulative data showing the percentages of CD3^−CD56^+CD45RA^−CD45RO^+ NK cells from five CMV seronegative and eight CMV seropositive donors pre- and post-culture are shown (bottom). Data are representative of two independent experiments. Paired student's t-tests were used to determine statistical significance within groups, and unpaired student's t-tests were used to determine statistical significance between groups (CMV seropositive and CMV seronegative). *p≤0.05, **p≤0.01, ***p≤0.001.
CD3/CD19-depleted peripheral blood mononuclear cells from typed healthy CMV seronegative and seropositive donors were cultured with 10 ng/mL IL-15. Percentages of CD3^−CD56^+CD45RA^−CD45RO^+ NK cells from CMV seronegative and CMV seropositive donors pre- and post-culture were measured using FACS.

[2] = test system: PLZF expression in cord blood-derived CD56^dim NK cells; test: Intracellular PLZF staining of cord blood-derived CD56^dim NK cells after 14 days in culture; conditions: high-dose IL-15, IL-21 where added
Protocol: FIG. 6A. FACS plots of intracellular PLZF expression in cord blood-derived CD56^dim NK cells from a representative donor after 14 days in the indicated culture conditions. FIG. 6B. Cumulative data showing the percentage of PLZF″ NK cells after 14 days in each culture condition from 6 donors. Two independent experiments were performed. Error bars represent SEM.
Mononuclear cells were isolated from whole cord blood by density gradient centrifugation. T cells and B cells were depleted by positive magnetic selection using anti-CD3 and anti-CD19 microbeads, respectively. CD3/CD19-depleted cells were then added to irradiated OP9 cells at a concentration of 5×10^5 cells/well and cultured for 14 days in RPMI media+10% FBS supplemented with either 1 ng/mL IL-15 or 10 ng/mL IL-15 with or without 50 ng/mL IL-21.
Cord blood-derived NK cells were analyzed before culture and after 7 and 14 days of culture by fluorescence activated cell sorting (FACS) using the following extracellular and intracellular antibodies: BV785-conjugated anti-CD3 (BioLegend, San Diego, CA), PE-Cy7-conjugated anti-CD56 (BioLegend, San Diego, CA), BV605-conjugated anti-CD57 (BioLegend, San Diego, CA), APC-conjugated SYK (eBioscience, San Diego, CA), and PE-conjugated anti-PLZF (BD Biosciences, San Jose, CA).
Transcriptional silencing of the transcription factor promyelocytic leukemia zinc finger (PLZF) is a hallmark of adaptive NK cells that expand in response to CMV infection (Schlums et al. Immunity. 2015; 42(3):443-456). Intracellular staining for PLZF was performed in NK cells from freshly isolated mononuclear cells and from cells that were cultured for 14 days in vitro. Freshly isolated CD56^dimSYK^− NK cells from cord blood were predominantly PLZF-positive (99.3%±0.10). […] Therefore, IL-21 drives down PLZF expression in CD56^dimSYK^− NK cells, causing these cells to acquire adaptive characteristics (FIG. 6).

With “IL-15: cytokine in culture medium, low-dose 1 ng/mL or high-dose 10 ng/mL” the “TIGIT expression on purified NK cells” value (TIGIT) was “slighted upregulated”, the “CD45RA/CD45RO phenotype of NK cells” value [1] was “skew towards a CD45RA^−CD45RO^+ phenotype” and the “decrease in PLZF expression (percentage of PLZF-negative NK cells)” value ([2]; CD56^dimCD57^−SYK^+ NK cells) was 9.93%±0.75. The “decrease in PLZF expression (percentage of PLZF-negative NK cells)” value ([2]; CD56^dimCD57^−SYK^− NK cells) was 7.05%±1.31.
